From patent US20190119282A1, “IMIDAZOPYRIDAZINES USEFUL AS INHIBITORS OF THE PAR-2 SIGNALING PATHWAY” (Vertex Pharmaceuticals Incorporated, priority 2013, published 2019)

Legend:
[1] = biological target: T1, PAR2 (HT-29 cells, SLIGKV activation) (Homo sapiens, UniProt P55085); assay: Ca FLIPR TETRA assay, ANTAGONIST mode, stimulation with 8 μM SLIGKV; assay type: cell-based; conditions: HT-29 cells, antagonist mode, stimulation with 8 μM SLIGKV
T1 construct: host or cells: HT-29 cells
T1 sequence (P55085 26-397): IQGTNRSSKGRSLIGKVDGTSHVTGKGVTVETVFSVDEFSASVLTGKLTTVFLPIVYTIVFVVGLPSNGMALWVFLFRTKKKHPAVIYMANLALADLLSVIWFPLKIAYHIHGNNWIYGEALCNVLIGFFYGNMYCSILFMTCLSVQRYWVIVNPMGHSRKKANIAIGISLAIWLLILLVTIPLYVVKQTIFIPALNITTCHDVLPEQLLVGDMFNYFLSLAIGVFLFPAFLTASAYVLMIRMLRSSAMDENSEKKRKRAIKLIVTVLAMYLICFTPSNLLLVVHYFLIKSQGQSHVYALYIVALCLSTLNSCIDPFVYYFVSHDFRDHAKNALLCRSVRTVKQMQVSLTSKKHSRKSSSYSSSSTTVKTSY
Method in brief: (§1)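 Antagonist-mode assay: dye-loaded HT-29 cells, compound 30 min at r.t., then stimulated with final 8 μM SLIGKV, 3.1 U/mL trypsin, 1 U/mL thrombin or 0.6 μM UTP; calcium fluorescence read.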

[2] = test system: Thrombin-stimulated Ca2+ response in HT-29 cells; assay: Ca FLIPR TETRA assay, ANTAGONIST mode, stimulation with 1 U/mL Thrombin; assay type: cell-based, human; conditions: Homo sapiens; HT-29 cells, antagonist mode, stimulation with 1 U/mL Thrombin
Method in brief: as §1

[3] = biological target: T2, PAR2 (HT-29 cells, trypsin activation) (Homo sapiens, UniProt P55085); assay: Ca FLIPR TETRA assay, ANTAGONIST mode, stimulation with 3.1 U/mL trypsin; assay type: cell-based; conditions: HT-29 cells, antagonist mode, stimulation with 3.1 U/mL trypsin
T2 construct: host or cells: HT-29 cells
T2 sequence (P55085 26-397): T1 sequence (P55085 26-397)
Method in brief: as §1

[4] = test system: UTP-stimulated Ca2+ response in HT-29 cells; assay: Ca FLIPR TETRA assay, ANTAGONIST mode, stimulation with 0.6 μM UTP; assay type: cell-based, human; conditions: Homo sapiens; HT-29 cells, antagonist mode, stimulation with 0.6 μM UTP
Method in brief: as §1

IC50 [1]	IC50 [2]	IC50 [3]	IC50 [4]	Structure (SMILES)
0.5 nM	> 1000 nM	0.7 nM	> 1000 nM	CC(C)(C)c1cc(-c2ccc(F)c(Cl)c2)nn2cc(C(=O)N3CCN(C(=O)[C@H]4C[C@@](C)(O)C4)CC3(C)C)nc12 [Compound I-460]
14.8 nM	> 1000 nM	39.8 nM	> 1000 nM	Cc1nnc(C(=O)N2CCN(C(=O)c3cn4nc(C5CCC(F)(F)CC5)cc(C(C)(C)C)c4n3)C(C)(C)C2)o1 [Compound I-461]
2.2 nM	> 1000 nM	3.7 nM	> 1000 nM	CC(C)(C)c1cc(-c2ccc(F)cc2)nn2cc(C(=O)N3CCNC(=O)C34CCCC4)nc12 [Compound I-462, 6-(8-(tert-butyl)-6-(4-fluorophenyl)imidazo[1,2-b]pyridazine-2-carbonyl)-6,9-diazaspiro[4.5]decan-10-one]
1.8 nM	> 1000 nM	2.7 nM	> 1000 nM	CC(C)(C)c1cc(-c2ccc(C(F)(F)F)cc2)nn2cc(C(=O)N3CCN(C(=O)[C@H]4C[C@@](C)(O)C4)CC3(C)C)nc12 [Compound I-463]
0.7 nM	> 1000 nM	1.9 nM	> 1000 nM	Cc1cc(C(=O)N2CCN(C(=O)c3cn4nc(-c5ccc(F)c(Cl)c5)cc(C(C)(C)C)c4n3)C(C)(C)C2)[nH]n1 [Compound I-466]
0.9 nM	> 1000 nM	2 nM	> 1000 nM	Cc1ncc(C(=O)N2CCN(C(=O)c3cn4nc(-c5ccc(F)c(Cl)c5)cc(C(C)(C)C)c4n3)C(C)(C)C2)[nH]1 [Compound I-467]
0.2 nM	8840 nM	0.2 nM	11000 nM	CC(C)(C)c1cc(-c2ccc(Cl)c(F)c2)nn2cc(C(=O)N3CCN(C(=O)[C@H]4C[C@@](C)(O)C4)CC3(C)C)nc12 [Compound I-469]
0.8 nM	905 nM	1.6 nM	> 1000 nM	CC(C)(C)c1cc(-c2ccc(F)cc2)nn2cc(C(=O)N3CCN(c4cc[nH]n4)C(=O)C3(C)C)nc12 [Compound I-471]
6.2 nM	> 1000 nM	13 nM	820 nM	CC(C)(C)c1cc(-c2ccc(F)cc2F)nn2cc(C(=O)N3CCNC(=O)C3(C)C)nc12 [Compound I-472]
15 nM	475 nM	25.5 nM	390 nM	CC(C)(C)c1cc(-c2ccccc2F)nn2cc(C(=O)N3CCNC(=O)C3(C)C)nc12 [Compound I-473]
2.4 nM	> 1000 nM	20 nM	> 1000 nM	CC(C)(C)c1cc(C2CCC(F)(F)CC2)nn2cc(C(=O)N3CCN(c4cc[nH]n4)C(=O)C3(C)C)nc12 [Compound I-474]

Second part, the compound before the results:

Structure (SMILES)	IC50 [1]	IC50 [2]	IC50 [3]	IC50 [4]
Cc1nc(C(=O)N2CCN(C(=O)c3cn4nc(-c5ccc(Cl)c(F)c5)cc(C(C)(C)C)c4n3)C(C)(C)C2)n[nH]1 [Compound I-451]	0.1 nM	> 1000 nM	0.3 nM	710 nM
Cc1ncc(C(=O)N2CCN(C(=O)c3cn4nc(-c5ccc(Cl)c(F)c5)cc(C(C)(C)C)c4n3)C(C)(C)C2)[nH]1 [Compound I-453]	0.7 nM	> 1000 nM	1.2 nM	> 1000 nM
CC(C)(C)c1cc(-c2ccc(Cl)c(F)c2)nn2cc(C(=O)N3CCN(C(=O)c4ccn[nH]4)CC3(C)C)nc12 [Compound I-454]	0.4 nM	> 1000 nM	0.7 nM	> 1000 nM
CC(C)(C)c1cc(-c2ccc(Cl)c(F)c2)nn2cc(C(=O)N3CCN(C(=O)c4ccccn4)CC3(C)C)nc12 [Compound I-455]	0.6 nM	> 1000 nM	0.9 nM	> 1000 nM
CC(C)(C)c1cc(-c2ccc(Cl)c(F)c2)nn2cc(C(=O)N3CCN(C(=O)c4ncccn4)CC3(C)C)nc12 [Compound I-456]	0.5 nM	> 1000 nM	0.7 nM	> 1000 nM
Cc1nnc(C(=O)N2CCN(C(=O)c3cn4nc(-c5ccc(Cl)c(F)c5)cc(C(C)(C)C)c4n3)C(C)(C)C2)o1 [Compound I-457]	0.6 nM	> 1000 nM	0.8 nM	> 1000 nM
CC(C)(C)c1cc(-c2ccc(F)c(Cl)c2)nn2cc(C(=O)N3CCN(C(=O)c4ccccn4)CC3(C)C)nc12 [Compound I-458]	1.3 nM	> 1000 nM	2.1 nM	> 1000 nM
CC(C)(C)c1cc(-c2ccc(F)c(Cl)c2)nn2cc(C(=O)N3CCN(C(=O)c4ccn[nH]4)CC3(C)C)nc12 [Compound I-459]	1 nM	> 1000 nM	1.5 nM	> 1000 nM
CC(C)(C)c1cc(-c2ccc(F)c(Cl)c2)nn2cc(C(=O)N3CCN(C(=O)c4ncccn4)CC3(C)C)nc12 [Compound I-464]	1.2 nM	> 1000 nM	2.2 nM	> 1000 nM
Cc1nnc(C(=O)N2CCN(C(=O)c3cn4nc(-c5ccc(F)c(Cl)c5)cc(C(C)(C)C)c4n3)C(C)(C)C2)o1 [Compound I-465]	1.8 nM	> 1000 nM	3.7 nM	> 1000 nM
Cc1n[nH]c(C(=O)N2CCN(C(=O)c3cn4nc(-c5ccc(F)c(Cl)c5)cc(C(C)(C)C)c4n3)C(C)(C)C2)n1 [Compound I-468]	0.7 nM	3240 nM	1.2 nM	2120 nM
Cc1cc(-c2cc(C(C)C)c3nc(C(=O)N4CCN(CO)C(=O)C4(C)C)cn3n2)ccc1F [Compound I-470]	25.7 nM	> 1000 nM	31.7 nM	> 1000 nM
Cc1n[nH]c(C(=O)N2CCN(C(=O)c3cn4nc(-c5ccc(F)cc5)cc(C(C)C)c4n3)C(C)(C)C2)n1 [Compound I-475]	3.8 nM	10300 nM	7.1 nM	13700 nM
CC(C)c1cc(-c2ccc(F)c(C3CC3)c2)nn2cc(C(=O)N3CCNC(=O)C3(C)C)nc12 [Compound I-476]	660 nM	> 1000 nM	965 nM	> 1000 nM
CC(C)c1cc(-c2ccc(F)cc2F)nn2cc(C(=O)N3CCNC(=O)C3(C)C)nc12 [Compound I-477]	43 nM	> 1000 nM	93 nM	> 1000 nM
CC(C)c1cc(-c2ccccc2F)nn2cc(C(=O)N3CCNC(=O)C3(C)C)nc12 [Compound I-479]	155 nM	> 1000 nM	250 nM	> 1000 nM
CC(C)c1cc(-c2cccc(F)c2)nn2cc(C(=O)N3CCNC(=O)C3(C)C)nc12 [Compound I-480]	20 nM	> 1000 nM	60 nM	> 1000 nM
Cc1nc(C(=O)N2CCN(C(=O)c3cn4nc(-c5ccc(F)cc5)cc(C(C)(C)C)c4n3)C(C)(C)C2)n(COP(=O)(O)O)n1 [Compound I-481]	47.2 nM	> 1000 nM	44.5 nM	> 1000 nM
CC(C)c1cc(-c2ccc(F)c(Cl)c2)nn2cc(C(=O)N3CCN(C(=O)[C@H]4C[C@@](C)(O)C4)CC3(C)C)nc12 [Compound I-482]	2.7 nM	2700 nM	2.7 nM	6350 nM
Cc1nc(C(=O)N2CCN(C(=O)c3cn4nc(-c5ccc(F)c(Cl)c5)cc(C(C)C)c4n3)C(C)(C)C2)n[nH]1 [Compound I-483]	2.5 nM	6900 nM	4.3 nM	6800 nM
